# Laboratory results taken from patent publication US11980607B2, “Methods of treating malignant lymphoproliferative disorders” (Actuate Therapeutics Inc., priority 2018, dated 2024).
# Legend:
# [1] = test system: primary lymphoma cells freshly isolated from patients; assay: Proliferation of primary lymphoma patient cells; format: cell-based, human; conditions: 5 patient samples (MCL, high grade B-cell lymphoma, follicular 3B, DLBCL, angioimmunoblastic TCL)
# Excerpt: (A) Immunoblot of GSK-3α and GSK-3β proteins showing overexpression in patient samples vs normal B-cell control. P1: MCL; P2: High grade B-cell lymphoma; P3: follicular large B-cell lymphoma 3B; P4: DLBCL; P5: angioimmunoblastic T-cell lymphoma. (B) 9-ING-41 inhibited proliferation in all 5 patient samples. (C) Immunohistochemistry staining of GSK-3β on paraffin tissue sections of patients with various lymphoma. Representative images show the spectrum of GSK-3β (in brown) overexpression in different lymphoma samples. […] Images were collected under 40× magnification.
# Lymphoma tissue samples were obtained from patients after written informed consent. This Lymphoma SPORE biospecimens protocol was approved by the Mayo Clinic Institutional Review Board in accordance with the Declaration of Helsinki. All primary patient samples were biopsy tissues from spleen or lymph nodes. Fresh tissue samples were gently dissociated into cell suspension and subjected to Ficoll-Paque density gradient centrifugation. Primary lymphoma cells were then used directly for proliferation assay, or stored in −80° C. for Western analysis later after lymphoma diagnosis confirmation.
# Cells were seeded at 1×10^4 cells/well in 96 well plates, and incubated with 9-ING-41 at indicated concentrations for 48 hours followed by pulsing with tritium labeled thymidine for overnight before being analyzed for thymidine uptake. […]
# TCL and MCL lines = assay: Apoptosis assay in TCL and MCL lines; format: cell-based, human; conditions: low doses, 48 hours
# Experimental: Unstimulated peripheral blood B- and T-lymphocytes isolated from a healthy donor were used as normal control. Pro-apoptotic effect of the GSK3 inhibitor 9-ING-41 in various MCL and TCL lines (A) and DLBCL lines (B). (C) Cell proliferation profile of various lymphoma cell lines upon treatment with 9-ING-41. Results (A-C) are from 3 independent experiments.
# Cells were seeded at 5×10^5 cells/well in 24 well plates, and incubated with 9-ING-41 at indicated concentrations for 48 hours. The cells were then stained with FITC conjugated Annexin V (Life Technologies) and Propidium Iodide followed by analysis on a BD FACS Calibur flow cytometer.
# Given that both GSK3α and GSK3β are overexpressed in lymphoma cells, and that both enzymes are implicated in multiple signaling pathways critical for cell functions, whether GSK3α and GSK3β are functionally supporting the survival and proliferation of lymphoma cells was examined. […] The inhibitory concentrations of 9-ING-41 at half of the maximal effect (IC50) on cell survival of various lymphoma cell lines was calculated (Table 1).
# OCI-Ly3 = assay: Proliferation assay (thymidine uptake); format: cell-based; conditions: Homo sapiens; OCI-Ly3 (DLBCL), 48 hours then thymidine pulse; read-out: IC50 (μM) on Cell proliferation
# Experimental: (§1) Cells were seeded at 1×10^4 cells/well in 96 well plates, and incubated with 9-ING-41 at indicated concentrations for 48 hours followed by pulsing with tritium labeled thymidine for overnight before being analyzed for thymidine uptake.
# (§2) The IC50S of 9-ING-41 on cell survival and proliferation was calculated using an on-line IC50 calculation tool (https://www.aatbio.com/tools/ic50-calculator/).
# (§3) 9-ING-41 can specifically induce lymphoma cell apoptosis without affecting normal lymphocytes. The thymidine incorporation assay in the presence or absence of 9-ING-41 was performed to test the role of GSK3 in lymphoma cell proliferation. […] The DLBCL lines required slightly higher concentrations. The IC50 of 9-ING-41 on cell proliferation for various lymphoma cell lines was calculated (Table 1).
# MyLa = assay: Proliferation assay (thymidine uptake); format: cell-based; conditions: Homo sapiens; MyLa (TCL), 48 hours then thymidine pulse; read-out: IC50 (μM) on Cell proliferation
# Experimental: as §1, §2, §3
# SU-DHL6 = assay: Proliferation assay (thymidine uptake); format: cell-based; conditions: Homo sapiens, SU-DHL-6; SU-DHL6 (DLBCL), 48 hours then thymidine pulse; read-out: IC50 (μM) on Cell proliferation
# Experimental: as §1, §2, §3
# OCI-LY1 = assay: Proliferation assay (thymidine uptake); format: cell-based; conditions: Homo sapiens; OCI-LY1 (DLBCL), 48 hours then thymidine pulse; read-out: IC50 (μM) on Cell proliferation
# Experimental: as §1, §2, §3
# Karpas-299 = assay: Proliferation assay (thymidine uptake); format: cell-based; conditions: Homo sapiens; Karpas-299 (TCL), 48 hours then thymidine pulse; read-out: IC50 (μM) on Cell proliferation
# Experimental: as §1, §2, §3
# OCI-LY19 = assay: Proliferation assay (thymidine uptake); format: cell-based; conditions: Homo sapiens; OCI-LY19 (DLBCL), 48 hours then thymidine pulse; read-out: IC50 (μM) on Cell proliferation
# Experimental: as §1, §2, §3
# Mino = assay: Proliferation assay (thymidine uptake); format: cell-based; conditions: Homo sapiens; Mino (MCL), 48 hours then thymidine pulse; read-out: IC50 (μM) on Cell proliferation
# Experimental: as §1, §2, §3
# Granta-519 = assay: Proliferation assay (thymidine uptake); format: cell-based; conditions: Homo sapiens; Granta-519 (MCL), 48 hours then thymidine pulse; read-out: IC50 (μM) on Cell proliferation
# Experimental: as §1, §2, §3
# SeAx = assay: Proliferation assay (thymidine uptake); format: cell-based; conditions: Homo sapiens; SeAx (TCL), 48 hours then thymidine pulse; read-out: IC50 (μM) on Cell proliferation
# Experimental: as §1, §2, §3
# Jeko = assay: Proliferation assay (thymidine uptake); format: cell-based; conditions: Homo sapiens; Jeko (MCL), 48 hours then thymidine pulse; read-out: IC50 (μM) on Cell proliferation
# Experimental: as §1, §2, §3
smiles,measurement,setting,value
"Cn1cc(C2=C(c3coc4ccc(F)cc34)C(=O)NC2=O)c2cc3c(cc21)OCO3 [9-ING-41, 3-(5-Fluorobenzofuran-3-yl)-4-(5-methyl-5H-[1,3]dioxolo[4,5-f]indol-7-yl)pyrrole-2,5-dione]",Antiproliferative effect in primary patient cells,[1],similarly responsive to the antiproliferative effects
same,Apoptosis in TCL and MCL lines,TCL and MCL lines,induced apoptosis
same,IC50,OCI-Ly3,1.03 µM
same,IC50,MyLa,0.19 µM
same,IC50,SU-DHL6,0.84 µM
same,IC50,OCI-LY1,0.69 µM
same,IC50,Karpas-299,0.26 µM
same,IC50,OCI-LY19,1.96 µM
same,IC50,Mino,0.72 µM
same,IC50,Granta-519,0.38 µM
same,IC50,SeAx,0.38 µM
same,IC50,Jeko,0.94 µM
